Measured values from publication PMC11864979, “First-in-class ultralong-target-residence-time p38α inhibitors as a mitosis-targeted therapy for colorectal cancer” (Nature Cancer, 2025).
Several values for one entry are separate records, joined by “and”; a condition that tells them apart may be missing. Equal entries are not always repeated. Where two headings read alike, the source gives them in different places.

Key:
[1] = tested on: LS 174T; assay: cell viability in human CRC cell line LS 174T; type: cell-based; conditions: Homo sapiens, LS174T, 96 h
[2] = tested on: RKO; assay: cell viability in human CRC cell line RKO; type: cell-based
Procedure: To generate KAP^2D cells, KAP organoids were isolated from Matrigel, fragmented by mechanical dissociation and plated without any extracellular matrix on common cell culture dishes. Phoenix-Eco packaging cells (CRL-3214), HCT-15 (CCL-225), HCT 116 (CCL-247), COLO 205 (CCL-222), LS 174T (CL-188), RKO (CRL-2577) and HT-29 (HTB-38) were obtained from the American Type Culture Collection. The cells were cultured at 37 °C and 7% CO2 with RPMI (KAP^2D cells) or DMEM (other cell lines), supplemented with 10% FBS and penicillin–streptomycin. KAP^2D cells were authenticated using PCR (Kras locus and Trp53 locus). Phoenix-Eco packaging cells and HCT-15, HCT 116, COLO 205, LS 174T, RKO and HT-29 cells were authenticated by the provider using short tandem repeat profiling. No commonly misidentified cell lines were used. Mycoplasma contamination was excluded by a PCR-based analysis.
For in vitro treatment studies, organoids were mechanically dissociated and digested using TrypLE supplemented with 100 µg ml^−1 DNaseI and 10.5 µM Y-27632 dihydrochloride (Invitrogen) at 37 °C. A total of 1,000–2,000 single cells were plated per well in white 96-well plates (Greiner) in culture medium containing 10% GFR Matrigel or Cultrex BME. The treatment with doxycycline (5 µg ml^−1), pharmacological inhibitors or corresponding volumes of DMSO was started 24 h after plating. Doxycycline was obtained from Sigma-Aldrich. […] Cell viability was measured by means of CellTiter-Glo 3D or CellTiter-Glo 2.0 reagent (Promega) according to the manufacturers’ instructions and the Infinite M Plex reader (Tecan, i-control version 3.9.1 software). Results were normalized to vehicle (DMSO) or to shNC. For cell-doubling assays, the cell number was quantified at the corresponding time points using Guava EasyCyte flow cytometer (Luminex, CytoSoft v5.2 software).

[3] = tested on: subcutaneous KAP CRCs; assay: treatment of subcutaneous KAP tumors in wild-type mice; type: in vivo, mouse; conditions: for Tumor volume: single tumors, Fig. 5i
Procedure: (§1) Subcutaneous injection, splenic seeding or cecum injection of organoids was performed in 8–10-week-old C57BL/6 N/Crl, Rag2^−/− (B6.Cg-Rag2^tm1.1Cgn/J), or CB17 Scid beige (CB17.Cg-Prkdc^scidLyst^bg-J/Crl) mice, obtained from Charles River. The organoids were dissociated into single cells, washed with PBS and injected in a 1:1 mixture of PBS and Matrigel. For murine organoids, 1 × 10^5 cells were injected into the left and right flanks or the spleen capsule and 2 × 10^6 cells were injected into the cecum wall. For human organoids, 4 × 10^5 cells were injected into the flanks of CB17 Scid beige mice. For splenic seeding and cecum injection, mice were anaesthetized using ketamine (100 mg kg^−1, intraperitoneally) and xylazin (10 mg/kg, intraperitoneally) in NaCl and a small laparotomy below the thorax was performed.
(§2) No mice were excluded during treatment studies.

[4] = tested on: KAP liver metastasis; assay: survival of wild-type mice with KAP liver metastasis; type: in vivo, mouse
Procedure: as §1, §2

CNC(=O)c1ccc2c(c1)C(=O)c1ccc(Nc3ccc(F)c(NC(=O)C4CC4)c3)cc1CC2 [Compound 2015] was tested, and the viability at 0.3704 µM ([1]; 0.3704 µM, 4 d, read-out: LS 174T Cell viability (%)) was 25%, the viability at 1.1111 µM ([1]; 1.1111 µM, 4 d, read-out: LS 174T Cell viability (%)) was 31.5% and the viability at 3.3333 µM ([1]; 3.3333 µM, 4 d, read-out: LS 174T Cell viability (%)) was 33.1%. The viability at 10 µM ([1]; 10.0000 µM, 4 d, read-out: LS 174T Cell viability (%)) was 25.1%, the IC50 ([1]; LS 174T, 4 d of treatment) was 132 nM and the “RKO Cell viability (%)” value ([2]; 0.0137 µM, ED Fig. 9g, Repetition, replicates) was 116.22% and 90.48% and 118.38%. For the same molecule, the “RKO Cell viability (%)” value ([2]; 0.0137 µM, ED Fig. 9g, first experiment, replicates) was 100.34% and 101.05%, the “RKO Cell viability (%)” value ([2]; 0.0412 µM, ED Fig. 9g, Repetition, replicates) was 83.96% and 99.53% and the “RKO Cell viability (%)” value ([2]; 0.0412 µM, ED Fig. 9g, first experiment, replicates) was 92.30% and 91.06%. The “RKO Cell viability (%)” value ([2]; 0.1235 µM, ED Fig. 9g, Repetition, replicates) was 63.64% and 62.87%, the “RKO Cell viability (%)” value ([2]; 0.1235 µM, ED Fig. 9g, first experiment, replicates) was 80.06% and 70.93% and the “RKO Cell viability (%)” value ([2]; 0.3704 µM, ED Fig. 9g, Repetition, replicates) was 22.09% and 24.58%. For the same molecule, the “RKO Cell viability (%)” value ([2]; 0.3704 µM, ED Fig. 9g, first experiment, replicates) was 38.23% and 37.54%, the “RKO Cell viability (%)” value ([2]; 1.1111 µM, ED Fig. 9g, Repetition, replicates) was 19.45% and 19.66% and the “RKO Cell viability (%)” value ([2]; 1.1111 µM, ED Fig. 9g, first experiment, replicates) was 16.15% and 15.81%. For the same molecule, the “RKO Cell viability (%)” value ([2]; 3.3333 µM, ED Fig. 9g, Repetition, replicates) was 19.33% and 18.47%, the “RKO Cell viability (%)” value ([2]; 3.3333 µM, ED Fig. 9g, first experiment, replicates) was 14.04% and 13.50% and the “RKO Cell viability (%)” value ([2]; 10.0000 µM, ED Fig. 9g, Repetition, replicates) was 17.62% and 19.44%. The “RKO Cell viability (%)” value ([2]; 10.0000 µM, ED Fig. 9g, first experiment, replicates) was 15.71% and 16.52%, the IC50 ([2]; Homo sapiens, 96 h, RKO, 4 d of treatment) was 207 nM and the viability at 0.0137 µM ([2]; Homo sapiens, RKO, 0.0137 µM, ED Fig. 9g, first experiment, replicates, read-out: RKO Cell viability (%)) was 104%. It also gave a viability at 0.0412 µM ([2]; Homo sapiens, RKO, 0.0412 µM, ED Fig. 9g, Repetition, replicates, read-out: RKO Cell viability (%)) of 103%, a viability at 0.0412 µM ([2]; Homo sapiens, RKO, 0.0412 µM, ED Fig. 9g, first experiment, replicates, read-out: RKO Cell viability (%)) of 104% and a viability at 0.1235 µM ([2]; Homo sapiens, RKO, 0.1235 µM, ED Fig. 9g, Repetition, replicates, read-out: RKO Cell viability (%)) of 65.6%. It also gave a viability at 0.1235 µM ([2]; Homo sapiens, RKO, 0.1235 µM, ED Fig. 9g, first experiment, replicates, read-out: RKO Cell viability (%)) of 73.7%, a viability at 0.3704 µM ([2]; Homo sapiens, RKO, 0.3704 µM, ED Fig. 9g, Repetition, replicates, read-out: RKO Cell viability (%)) of 25.3% and a viability at 0.3704 µM ([2]; Homo sapiens, RKO, 0.3704 µM, ED Fig. 9g, first experiment, replicates, read-out: RKO Cell viability (%)) of 36.7%. The viability at 1.1111 µM ([2]; Homo sapiens, RKO, 1.1111 µM, ED Fig. 9g, Repetition, replicates, read-out: RKO Cell viability (%)) was 20%, the viability at 1.1111 µM ([2]; Homo sapiens, RKO, 1.1111 µM, ED Fig. 9g, first experiment, replicates, read-out: RKO Cell viability (%)) was 15.3% and the viability at 3.3333 µM ([2]; Homo sapiens, RKO, 3.3333 µM, ED Fig. 9g, Repetition, replicates, read-out: RKO Cell viability (%)) was 19.5%. The viability at 3.3333 µM ([2]; Homo sapiens, RKO, 3.3333 µM, ED Fig. 9g, first experiment, replicates, read-out: RKO Cell viability (%)) was 14.5%, the viability at 10 µM ([2]; Homo sapiens, RKO, 10.0000 µM, ED Fig. 9g, Repetition, replicates, read-out: RKO Cell viability (%)) was 20% and the viability at 10 µM ([2]; Homo sapiens, RKO, 10.0000 µM, ED Fig. 9g, first experiment, replicates, read-out: RKO Cell viability (%)) was 16.2%. The “subcutaneous KAP tumor development (in words)” value ([3]; 20 mg kg^−1 daily, oral gavage) was “pronounced remission of CRC”, the Tumor volume ([3]; 2 d of treatment) was 87.5 mm³ and 75.0 mm³ and 126.0 mm³ and 144.0 mm³ and the Tumor volume ([3]; 4 d of treatment) was 48.0 mm³ and 56.0 mm³ and 40.0 mm³. The “survival / therapeutic efficacy in KAP liver metastasis (in words)” value ([4]; 20 mg kg^−1 daily, start 5 weeks after organoid inoculation) was “significantly increased the overall survival” and the Survival ([4]; single animals, 1 = event, 0 = censored, Fig. 6e) was 41 d of treatment and 44 d of treatment and 45 d of treatment and 47 d of treatment and ≥ 50 d of treatment and 34 d of treatment.
